# From patent US12281122B1, “PI3K inhibitors” (Cogent Biosciences, Inc., priority 2023, dated 2025)
# Assays:
# [1] = tested on: SKBR3 (PI3Kα-Wild Type) cell line; assay: HTRF phospho-AKT(S473) cell assay in SKBR3 cells; type: cell-based, human; conditions: Homo sapiens, SK-BR-3, 2 hours compound incubation, PDGF-BB stimulated
# Procedure, shortened: (§1)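 T47D (PI3Kα-H1047R; RPMI, 10% FBS, insulin) and SKBR3 (wild-type PI3Kα; McCoy's 5A, 10% FBS) cells treated 2 h at 37 °C with 12-point 1:3 dilutions, top 5 μM and 10 μM respectively, ≤0.5% DMSO. SKBR3 stimulated with 70 ng/ml PDGF-BB for the last 15 min; lysate pAKT(S473) by HTRF, IC50 from curves.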
# [2] = tested on: T47D (PI3Kα-H1047R) cell line; assay: HTRF phospho-AKT(S473) cell assay in T47D cells; type: cell-based, human; conditions: Homo sapiens, 2 hours compound incubation
# Procedure, shortened: as §1
# [3] = HTRF phospho-AKT(S473), SKBR3 (PI3Kα-Wild Type) cells
# [4] = HTRF phospho-AKT(S473), T47D (PI3Kα-H1047R) cells
# [5] = SKBR3 (PI3Kα-Wild Type) cells, HTRF phospho-AKT(S473)
# [6] = T47D (PI3Kα-H1047R) cells, HTRF phospho-AKT(S473)
# [7] = SKBR3 (PI3Kα-Wild Type) cell line, phospho-AKT(S473) HTRF
# [8] = T47D (PI3Kα-H1047R) cell line, phospho-AKT(S473) HTRF
Compound,"IC50 [1, 3] [µM]","IC50 [2, 4] [µM]","IC50 [1, 5] [µM]","IC50 [2, 6] [µM]",other results
"CCn1c(N2C[C@@H]3[C@H](C2)[C@H]3c2cnc(C)nc2)nc2c([C@@H](C)Nc3ccc(Cl)nc3C(=O)NS(C)(=O)=O)cc(C)cc2c1=O [Compound 584, 6-chloro-3-(((R)-1-(3-ethyl-6-methyl-2-((1R,5S,6S)-6-(2-methylpyrimidin-5-yl)-3-azabicyclo[3.1.0]hexan-3-yl)-4-oxo-3,4-dihydroquinazolin-8-yl)ethyl)amino)-N-(methylsulfonyl) picolinamide]",1 to 5,< 0.25,,,
"Cc1cc([C@@H](C)Nc2ccc(Cl)nc2C(=O)NS(C)(=O)=O)c2nc(N3CCC(c4c(C)cnn4C)CC3)n(C)c(=O)c2c1 [Compound 427, (R)-6-chloro-3-((1-(2-(4-(1,4-dimethyl-1H-pyrazol-5-yl)piperidin-1-yl)-3,6-dimethyl-4-oxo-3,4-dihydroquinazolin-8-yl)ethyl)amino)-N-(methylsulfonyl) picolinamide]",,,1 to 5,< 0.25,
"Cc1cc([C@@H](C)Nc2ccc(Cl)nc2C(=O)NS(C)(=O)=O)c2nc(-c3ccc4nc(C)cn4c3)n(C)c(=O)c2c1 [Compound 844, (R)-6-chloro-3-((1-(3,6-dimethyl-2-(2-methylimidazo[1,2-a]pyridin-6-yl)-4-oxo-3,4-dihydroquinazolin-8-yl)ethyl)amino)-N-(methylsulfonyl) picolinamide]",,,,,"IC50 [1, 7]: 1 to 5 µM; IC50 [2, 8]: 0.25 to 0.5 µM"
"COc1cc(C2CCN(c3nc4c([C@@H](C)Nc5ccc(Cl)nc5C(=O)NS(C)(=O)=O)cc(C)cc4c(=O)n3C)CC2)nn1C [Compound 704, (R)-6-chloro-3-((1-(2-(4-(5-methoxy-1-methyl-1H-pyrazol-3-yl)piperidin-1-yl)-3,6-dimethyl-4-oxo-3,4-dihydroquinazolin-8-yl)ethyl)amino)-N-(methylsulfonyl) picolinamide]",≥ 5,0.25 to 0.5,,,
"Cc1cc([C@@H](C)Nc2ccc(Cl)nc2C(=O)NS(C)(=O)=O)c2nc(N3CCC(n4cc5ccccc5n4)CC3)n(C)c(=O)c2c1 [Compound 198, (R)-3-((1-(2-(4-(2H-indazol-2-yl)piperidin-1-yl)-3,6-dimethyl-4-oxo-3,4-dihydroquinazolin-8-yl)ethyl)amino)-6-chloro-N-(methylsulfonyl) picolinamide]",,,1 to 5,< 0.25,
"COc1nc(C)cc(N2CCN(c3nc4c([C@@H](C)Nc5ccc(Cl)nc5C(=O)NS(C)(=O)=O)cc(C)cc4c(=O)n3C)CC2)n1 [Compound 729, (R)-6-chloro-3-((1-(2-(4-(2-methoxy-6-methylpyrimidin-4-yl)piperazin-1-yl)-3,6-dimethyl-4-oxo-3,4-dihydroquinazolin-8-yl)ethyl)amino)-N-(methylsulfonyl) picolinamide]",1 to 5,0.25 to 0.5,,,
"Cc1cc([C@@H](C)Nc2ccc(Cl)nc2C(=O)NS(C)(=O)=O)c2nc(N3[C@@H]4CC[C@H]3C[C@H](c3cnc(C)nc3)C4)n(C)c(=O)c2c1 [Compound 300, 6-chloro-3-(((R)-1-(3,6-dimethyl-2-((1R,3S,5S)-3-(2-methylpyrimidin-5-yl)-8-azabicyclo[3.2.1]octan-8-yl)-4-oxo-3,4-dihydroquinazolin-8-yl)ethyl)amino)-N-(methylsulfonyl) picolinamide]",,,≥ 5,< 0.25,
"Cc1cc([C@@H](C)Nc2ccc(Cl)nc2C(=O)NS(C)(=O)=O)c2nc(N3CCC(n4cc(-c5cnc(C)cn5)cn4)CC3)n(C)c(=O)c2c1 [Compound 270, (R)-6-chloro-3-((1-(3,6-dimethyl-2-(4-(4-(5-methylpyrazin-2-yl)-1H-pyrazol-1-yl)piperidin-1-yl)-4-oxo-3,4-dihydroquinazolin-8-yl)ethyl)amino)-N-(methylsulfonyl) picolinamide]",,,≥ 5,< 0.25,
"Cc1cc([C@@H](C)Nc2ccc(Cl)nc2C(=O)NS(C)(=O)=O)c2nc(N3Cc4cn(CC(F)(F)F)nc4C3)n(C3CC3)c(=O)c2c1 [Compound 735, (R)-6-chloro-3-((1-(3-cyclopropyl-6-methyl-4-oxo-2-(2-(2,2,2-trifluoroethyl)-2,6-dihydropyrrolo[3,4-c]pyrazol-5(4H)-yl)-3,4-dihydroquinazolin-8-yl)ethyl)amino)-N-(methylsulfonyl) picolinamide]",1 to 5,0.25 to 0.5,,,
"Cc1cc([C@@H](C)Nc2ccc(Cl)nc2C(=O)NS(C)(=O)=O)c2nc(-c3ccc(-c4cnc(C)nc4)nc3)n(C)c(=O)c2c1 [Compound 854, (R)-6-chloro-3-((1-(3,6-dimethyl-2-(6-(2-methylpyrimidin-5-yl)pyridin-3-yl)-4-oxo-3,4-dihydroquinazolin-8-yl)ethyl)amino)-N-(methylsulfonyl) picolinamide]",,,,,"IC50 [1, 7]: 1 to 5 µM; IC50 [2, 8]: < 0.25 µM"
"Cc1cc([C@@H](C)Nc2ccc(Cl)nc2C(=O)NS(C)(=O)=O)c2nc(-c3cnn(-c4ccccc4)c3)n(C)c(=O)c2c1 [Compound 171, (R)-6-chloro-3-((1-(3,6-dimethyl-4-oxo-2-(1-phenyl-1H-pyrazol-4-yl)-3,4-dihydroquinazolin-8-yl)ethyl)amino)-N-(methylsulfonyl) picolinamide]",,,1 to 5,< 0.25,
"COc1cccnc1-n1cc2c(n1)CN(c1nc3c([C@@H](C)Nc4ccc(Cl)nc4C(=O)NS(C)(=O)=O)cc(C)cc3c(=O)n1C)C2 [Compound 327, (R)-6-chloro-3-((1-(2-(2-(3-methoxypyridin-2-yl)-2,6-dihydropyrrolo[3,4-c]pyrazol-5(4H)-yl)-3,6-dimethyl-4-oxo-3,4-dihydroquinazolin-8-yl)ethyl)amino)-N-(methylsulfonyl) picolinamide]",,,1 to 5,0.25 to 0.5,
"Cc1cc([C@@H](C)Nc2ccc(Cl)nc2C(=O)NS(C)(=O)=O)c2nc(N3CCC(c4ccnn4C(F)F)CC3)n(C)c(=O)c2c1 [Compound 414, (R)-6-chloro-3-((1-(2-(4-(1-(difluoromethyl)-1H-pyrazol-5-yl)piperidin-1-yl)-3,6-dimethyl-4-oxo-3,4-dihydroquinazolin-8-yl)ethyl)amino)-N-(methylsulfonyl) picolinamide]",,,1 to 5,< 0.25,
"Cc1cc([C@@H](C)Nc2ccc(Cl)nc2C(=O)NS(C)(=O)=O)c2nc(N3CC[C@H](Oc4cncnc4)C3)n(C)c(=O)c2c1 [Compound 354, 6-chloro-3-(((R)-1-(3,6-dimethyl-4-oxo-2-((S)-3-(pyrimidin-5-yloxy)pyrrolidin-1-yl)-3,4-dihydroquinazolin-8-yl)ethyl)amino)-N-(methylsulfonyl) picolinamide]",,,1 to 5,< 0.25,
"Cc1cc([C@@H](C)Nc2ccc(Cl)nc2C(=O)NS(C)(=O)=O)c2nc(N3CCC(n4ncc5ccccc54)CC3)n(C)c(=O)c2c1 [Compound 685, (R)-3-((1-(2-(4-(1H-indazol-1-yl)piperidin-1-yl)-3,6-dimethyl-4-oxo-3,4-dihydroquinazolin-8-yl)ethyl)amino)-6-chloro-N-(methylsulfonyl) picolinamide]",≥ 5,0.25 to 0.5,,,
"Cc1cc([C@@H](C)Nc2ccc(Cl)nc2C(=O)NS(C)(=O)=O)c2nc(N3CC[C@H](Oc4ccc(F)cn4)C3)n(C)c(=O)c2c1 [Compound 513, 6-chloro-3-(((R)-1-(2-((S)-3-((5-fluoropyridin-2-yl)oxy)pyrrolidin-1-yl)-3,6-dimethyl-4-oxo-3,4-dihydroquinazolin-8-yl)ethyl)amino)-N-(methylsulfonyl) picolinamide]",≥ 5,0.25 to 0.5,,,
"Cc1cc([C@@H](C)Nc2ccc(Cl)nc2C(=O)NS(C)(=O)=O)c2nc(N3CCN(c4cc(F)cnc4C)CC3)n(C)c(=O)c2c1 [Compound 730, (R)-6-chloro-3-((1-(2-(4-(5-fluoro-2-methylpyridin-3-yl)piperazin-1-yl)-3,6-dimethyl-4-oxo-3,4-dihydroquinazolin-8-yl)ethyl)amino)-N-(methylsulfonyl) picolinamide]",1 to 5,0.25 to 0.5,,,
"Cc1cc([C@@H](C)Nc2ccc(Cl)nc2C(=O)NS(C)(=O)=O)c2nc(N3C[C@H]4C[C@@H]3CN4c3ncc(C#N)cc3F)n(C)c(=O)c2c1 [Compound 767, 6-chloro-3-(((R)-1-(2-((1R,4R)-5-(5-cyano-3-fluoropyridin-2-yl)-2,5-diazabicyclo [2.2.1]heptan-2-yl)-3,6-dimethyl-4-oxo-3,4-dihydroquinazolin-8-yl)ethyl)amino)-N-(methylsulfonyl) picolinamide]",≥ 5,0.25 to 0.5,,,
"Cc1cnc([C@@H]2CCCN(c3nc4c([C@@H](C)Nc5ccc(Cl)nc5C(=O)NS(C)(=O)=O)cc(C)cc4c(=O)n3C)C2)nc1 (relative stereo) [Compound 625, 6-chloro-3-(((R)-1-(3,6-dimethyl-2-((R*)-3-(5-methylpyrimidin-2-yl)piperidin-1-yl)-4-oxo-3,4-dihydroquinazolin-8-yl)ethyl)amino)-N-(methylsulfonyl) picolinamide]",≥ 5,0.25 to 0.5,,,
"COc1cc(N2CCN(c3nc4c([C@@H](C)Nc5ccc(Cl)nc5C(=O)NS(C)(=O)=O)cc(C)cc4c(=O)n3C)CC2)nc(C)n1 [Compound 718, (R)-6-chloro-3-((1-(2-(4-(6-methoxy-2-methylpyrimidin-4-yl)piperazin-1-yl)-3,6-dimethyl-4-oxo-3,4-dihydroquinazolin-8-yl)ethyl)amino)-N-(methylsulfonyl) picolinamide]",≥ 5,0.25 to 0.5,,,
